The text below walks through data of patent US10077243B2, “Compounds for treating disorders mediated by metabotropic glutamate receptor 5, and methods of use thereof” (Sunovion Pharmaceuticals Inc., priority 2009, dated 2018).

Molecules are shown by their SMILES. Some results are limits rather than exact numbers.

T1 sequence (P41594 21-1212): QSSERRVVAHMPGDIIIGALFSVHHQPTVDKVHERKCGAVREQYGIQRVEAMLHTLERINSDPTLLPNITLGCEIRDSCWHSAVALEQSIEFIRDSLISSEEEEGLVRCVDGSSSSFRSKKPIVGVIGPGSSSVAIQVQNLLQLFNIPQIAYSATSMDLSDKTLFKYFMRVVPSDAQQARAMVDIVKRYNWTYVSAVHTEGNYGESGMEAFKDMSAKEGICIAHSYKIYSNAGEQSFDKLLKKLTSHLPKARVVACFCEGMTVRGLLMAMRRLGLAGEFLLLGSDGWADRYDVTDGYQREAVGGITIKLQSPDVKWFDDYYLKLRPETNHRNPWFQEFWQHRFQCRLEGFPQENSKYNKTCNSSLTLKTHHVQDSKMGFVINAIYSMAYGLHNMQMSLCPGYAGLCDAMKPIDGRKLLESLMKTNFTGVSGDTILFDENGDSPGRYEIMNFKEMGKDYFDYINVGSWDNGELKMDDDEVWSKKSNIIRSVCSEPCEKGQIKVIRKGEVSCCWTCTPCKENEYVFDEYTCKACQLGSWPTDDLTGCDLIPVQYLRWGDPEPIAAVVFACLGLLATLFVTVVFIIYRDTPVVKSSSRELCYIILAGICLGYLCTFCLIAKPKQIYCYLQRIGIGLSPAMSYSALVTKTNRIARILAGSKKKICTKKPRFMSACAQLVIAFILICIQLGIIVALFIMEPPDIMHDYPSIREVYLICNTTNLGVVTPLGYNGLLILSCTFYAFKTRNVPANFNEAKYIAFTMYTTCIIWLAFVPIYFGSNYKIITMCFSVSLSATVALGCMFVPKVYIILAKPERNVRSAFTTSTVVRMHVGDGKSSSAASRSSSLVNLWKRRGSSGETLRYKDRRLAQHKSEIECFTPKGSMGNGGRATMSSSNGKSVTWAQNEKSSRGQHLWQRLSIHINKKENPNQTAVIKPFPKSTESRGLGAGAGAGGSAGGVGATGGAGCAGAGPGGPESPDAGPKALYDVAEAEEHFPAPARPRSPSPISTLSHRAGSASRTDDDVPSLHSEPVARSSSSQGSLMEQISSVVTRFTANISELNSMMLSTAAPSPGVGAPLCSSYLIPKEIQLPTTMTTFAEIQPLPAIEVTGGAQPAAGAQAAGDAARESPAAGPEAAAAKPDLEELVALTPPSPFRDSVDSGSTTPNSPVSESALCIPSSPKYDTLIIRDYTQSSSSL

The assay addresses T1, human mGluR5 (Homo sapiens, UniProt P41594).
T1 construct: expressed in transfected cells; host or cells: HEK293 cells stably expressing rat GLAST (EAAT1), stably transfected with pcDNAzeo3.1 carrying synthetic human mGluR5 DNA; zeocin-selected single clones
The assay can be described thus: In vitro cell-based FLIPR calcium assay for positive modulation of the activation of mGluR5 by glutamate (PAM EC50). Particulars: HEK293/GLAST cells expressing recombinant human mGluR5; FLIPR calcium signal; glutamate added at its EC20; read-out: mGluR5 PAM EC50. The method in brief:
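HEK293/GLAST cells stably expressing mGluR5 were loaded with calcium-sensitive dye (25 °C, 45–60 min) in HBSS/20 mM HEPES. Test compounds were assayed in buffer containing glutamate at that day's EC20, with FLIPR fluorescence recorded. Controls contained 0.3% DMSO without compound.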
As usually defined, the EC50 is the concentration giving half of the maximal effect. Take `CC1(C)Cn2c(nc3cc(C#Cc4ccccn4)ccc3c2=O)CN1` [Example 5.17, 3,3-dimethyl-9-(pyridin-2-ylethynyl)-3,4-dihydro-1H-pyrazino[2,1-b]quinazolin-6(2H)-one]: the concentration for a half-maximal effect (EC50) was in the range of 100 to 300 nM.

`CN1Cc2nc3cc(C#Cc4ccccn4)ccc3c(=O)n2CC1(C)C` [Example 5.18, 2,3,3-trimethyl-9-(pyridin-2-ylethynyl)-3,4-dihydro-1H-pyrazino[2,1-b]quinazolin-6(2H)-one]: the EC50 is 300 to 1000 nM.

As to `O=c1c2ccc(C#Cc3cccc(F)c3)cc2nc2n1CC1CCCCN1C2` (stereo not drawn) [Example 5.19, 3-((3-fluorophenyl)ethynyl)-8,9,10,11,11a,12-hexahydropyrido[1′,2′:4,5]pyrazino[2,1-b]quinazolin-14(6H)-one], the concentration for a half-maximal effect (EC50) was in the range of 300 to 1000 nM.

For `O=c1c2ccc(C#Cc3ccccn3)cc2nc2n1CC1CCCCN1C2` (stereo not drawn) [Example 5.20, 3-(pyridin-2-ylethynyl)-8,9,10,11,11a,12-hexahydropyrido[1′,2′:4,5]pyrazino[2,1-b]quinazolin-14(6H)-one], the EC50 was 300 to 1000 nM.

With `O=c1c2ccc(C#Cc3cccc(F)c3)cc2nc2n1CC1CCCN1C2` (stereo not drawn) [Example 5.21, 8-((3-fluorophenyl)ethynyl)-2,3,13,13a-tetrahydro-1H-pyrrolo[1′,2′:4,5]pyrazino[2,1-b]quinazolin-11(5H)-one], the concentration for a half-maximal effect (EC50) is less than 10 nM.

With `O=c1c2ccc(C#Cc3ccccn3)cc2nc2n1CC1CCCN1C2` (stereo not drawn) [Example 5.22, 8-(pyridin-2-ylethynyl)-2,3,13,13a-tetrahydro-1H-pyrrolo[1′,2′:4,5]pyrazino[2,1-b]quinazolin-11(5H)-one], the EC50 lay within 30 to 100 nM.

Regarding `O=c1c2ccc(C#Cc3ccccn3)cc2nc2n1C[C@@H]1CCCN1C2` [Example 5.23, (S)-8-(pyridin-2-ylethynyl)-2,3,13,13a-tetrahydro-1H-pyrrolo[1′,2′:4,5]pyrazino[2,1-b]quinazolin-11(5H)-one], the EC50 was 30 to 100 nM.

For `O=c1c2ccc(C#Cc3cccnc3)cc2nc2n1CC1CCCN1C2` (stereo not drawn) [Example 5.24, 8-(pyridin-3-ylethynyl)-2,3,13,13a-tetrahydro-1H-pyrrolo[1′,2′:4,5]pyrazino[2,1-b]quinazolin-11(5H)-one], the EC50 was in the range of 30 to 100 nM.

On to `CC1(C)CNc2nc3cc(C#Cc4ccccn4)ccc3c(=O)n2C1` [Example 5.26, 3,3-dimethyl-9-(pyridin-2-ylethynyl)-3,4-dihydro-1H-pyrimido[2,1-b]quinazolin-6(2H)-one], for which the EC50 is less than 10 nM.

As to `O=c1c2ccc(C#Cc3ccc(F)cc3)cc2nc2n1CCOCC2` [Example 6.1, 8-((4-fluorophenyl)ethynyl)-4,5-dihydro-1H-[1,4]oxazepino[5,4-b]quinazolin-11(2H)-one], the EC50 is less than 10 nM.

As for `CCc1ccc(C#Cc2ccc3c(=O)n4c(nc3c2)CCCCC4)cc1` [Example 6.3, 3-((4-ethylphenyl)ethynyl)-7,8,9,10-tetrahydroazepino[2,1-b]quinazolin-12(6H)-one], the EC50 lay in the range of 100 to 300 nM.

For `O=c1c2ccc(C#Cc3ccccc3)cc2nc2n1CCCCC2` [Example 6.4, 3-(phenylethynyl)-7,8,9,10-tetrahydroazepino[2,1-b]quinazolin-12(6H)-one], the EC50 was less than 10 nM.

Regarding `O=c1c2ccc(C#Cc3ccccn3)cc2nc2n1CCCCC2` [Example 6.5, 3-(pyridin-2-ylethynyl)-7,8,9,10-tetrahydroazepino[2,1-b]quinazolin-12(6H)-one], the concentration for a half-maximal effect (EC50) is less than 10 nM.

As for `CC1CCc2nc3cc(C#Cc4ccc(F)cc4)ccc3c(=O)n2CC1` (stereo not drawn) [Example 6.6, 3-((4-fluorophenyl)ethynyl)-8-methyl-7,8,9,10-tetrahydroazepino[2,1-b]quinazolin-12(6H)-one], the EC50 was less than 10 nM.

`CC1CCc2nc3cc(C#Cc4cccc(F)c4)ccc3c(=O)n2CC1` (stereo not drawn) [Example 6.7, 3-((3-fluorophenyl)ethynyl)-8-methyl-7,8,9,10-tetrahydroazepino[2,1-b]quinazolin-12(6H)-one]: the half-maximal effective concentration (EC50) was less than 10 nM.

For the compound `Cc1cnc(C#Cc2ccc3c(=O)n4c(nc3c2)CCC(C)CC4)s1` (stereo not drawn) [Example 6.8, 8-methyl-3-((5-methylthiazol-2-yl)ethynyl)-7,8,9,10-tetrahydroazepino[2,1-b]quinazolin-12(6H)-one], the EC50 was 10 to 30 nM.

In the case of `CC1CCc2nc3cc(C#Cc4ccccn4)ccc3c(=O)n2CC1` (stereo not drawn) [Example 6.9, 8-methyl-3-(pyridin-2-ylethynyl)-7,8,9,10-tetrahydroazepino[2,1-b]quinazolin-12(6H)-one], the half-maximal effective concentration (EC50) was less than 10 nM.

In the case of `CCC1CCc2nc3cc(C#Cc4ccc(F)cc4)ccc3c(=O)n2CC1` (stereo not drawn) [Example 6.12, 8-ethyl-3-((4-fluorophenyl)ethynyl)-7,8,9,10-tetrahydroazepino[2,1-b]quinazolin-12(6H)-one], the EC50 was less than 10 nM.

In the case of `CCCC1CCc2nc3cc(C#Cc4ccc(F)cc4)ccc3c(=O)n2CC1` (stereo not drawn) [Example 6.13, 3-((4-fluorophenyl)ethynyl)-8-propyl-7,8,9,10-tetrahydroazepino[2,1-b]quinazolin-12(6H)-one], the 50% effective concentration (EC50) was in the range of 30 to 100 nM.

For the compound `O=C1CCc2nc3cc(C#Cc4cccc(F)c4)ccc3c(=O)n2CC1` [Example 6.14, 3-((3-fluorophenyl)ethynyl)-6,7,9,10-tetrahydroazepino[2,1-b]quinazoline-8,12-dione], the concentration for a half-maximal effect (EC50) fell in the range of 10 to 30 nM.

As to `O=c1c2ccc(C#Cc3cccc(F)c3)cc2nc2n1CCC(O)CC2` (stereo not drawn) [Example 6.15, 3-((3-fluorophenyl)ethynyl)-8-hydroxy-7,8,9,10-tetrahydroazepino[2,1-b]quinazolin-12(6H)-one], the EC50 is less than 10 nM.

Consider `O=c1c2ccc(C#Cc3ccccn3)cc2nc2n1CCC(O)CC2` (stereo not drawn) [Example 6.16, 8-hydroxy-3-(pyridin-2-ylethynyl)-7,8,9,10-tetrahydroazepino[2,1-b]quinazolin-12(6H)-one], for which the EC50 was in the range of 30 to 100 nM.

In the case of `O=c1c2ccc(C#Cc3cccnc3)cc2nc2n1CCC(O)CC2` (stereo not drawn) [Example 6.17, 8-hydroxy-3-(pyridin-3-ylethynyl)-7,8,9,10-tetrahydroazepino[2,1-b]quinazolin-12(6H)-one], the EC50 is 100 to 300 nM.

Take `COC1CCc2nc3cc(C#Cc4cccc(F)c4)ccc3c(=O)n2CC1` (stereo not drawn) [Example 6.18, 3-((3-fluorophenyl)ethynyl)-8-methoxy-7,8,9,10-tetrahydroazepino[2,1-b]quinazolin-12(6H)-one]: the EC50 was less than 10 nM.

As to `C=C1CCc2nc3cc(C#Cc4cccc(F)c4)ccc3c(=O)n2CC1` [Example 6.22, 3-((3-fluorophenyl)ethynyl)-8-methylene-7,8,9,10-tetrahydroazepino[2,1-b]quinazolin-12(6H)-one], the half-maximal effective concentration (EC50) was less than 10 nM.

Turning to `O=c1c2ccc(C#Cc3cccc(F)c3)cc2nc2n1CC/C(=N\O)CC2` [Example 6.23, 3-((3-fluorophenyl)ethynyl)-8-(hydroxyimino)-7,8,9,10-tetrahydroazepino[2,1-b]quinazolin-12(6H)-one], the EC50 was in the range of 30 to 100 nM.

On to `COCC1CCc2nc3cc(C#Cc4cccc(F)c4)ccc3c(=O)n2CC1` (stereo not drawn) [Example 6.24, 3-((3-fluorophenyl)ethynyl)-8-(methoxymethyl)-7,8,9,10-tetrahydroazepino[2,1-b]quinazolin-12(6H)-one], for which the EC50 was 10 to 30 nM.

Take `O=c1c2ccc(C#Cc3cccc(F)c3)cc2nc2n1CCC1(CCCO1)CC2` (stereo not drawn) [Example 6.26, 3-((3-fluorophenyl)ethynyl)-4′,5′,9,10-tetrahydro-3′H,6H-spiro[azepino[2,1-b]quinazoline-8,2′-furan]-12(7H)-one]: the half-maximal effective concentration (EC50) lay within 10 to 30 nM.

Regarding `O=c1c2ccc(C#Cc3ccccn3)cc2nc2n1CCC1(CCCO1)CC2` (stereo not drawn) [Example 6.27, 3-(pyridin-2-ylethynyl)-4′,5′,9,10-tetrahydro-3′H,6H-spiro[azepino[2,1-b]quinazoline-8,2′-furan]-12(7H)-one], the concentration giving a half-maximal response (EC50) lay in the range of 30 to 100 nM.

In the case of `CC(C)CC1CCCCc2nc3cc(C#Cc4ccc(F)cc4)ccc3c(=O)n21` (stereo not drawn) [Example 6.32, 3-((4-fluorophenyl)ethynyl)-10-isobutyl-7,8,9,10-tetrahydroazepino[2,1-b]quinazolin-12(6H)-one], the EC50 was in the range of 100 to 300 nM.

On to `C=CCC1CCCCc2nc3cc(C#Cc4ccc(F)cc4)ccc3c(=O)n21` (stereo not drawn) [Example 6.33, 10-allyl-3-((4-fluorophenyl)ethynyl)-7,8,9,10-tetrahydroazepino[2,1-b]quinazolin-12(6H)-one], for which the half-maximal effective concentration (EC50) fell in the range of 10 to 30 nM.

As for `O=c1c2ccc(C#Cc3cccc(F)c3)cc2nc2n1CCC1(CC2)OCCO1` [Example 6.34, 3-((3-fluorophenyl)ethynyl)-9,10-dihydro-6H-spiro[azepino[2,1-b]quinazoline-8,2′-[1,3]dioxolan]-12(7H)-one], the concentration for a half-maximal effect (EC50) lay within 10 to 30 nM.

Turning to `CC1CCCCn2c1nc1cc(C#Cc3ccccn3)ccc1c2=O` (stereo not drawn) [Example 6.35, 6-methyl-3-(pyridin-2-ylethynyl)-7,8,9,10-tetrahydroazepino[2,1-b]quinazolin-12(6H)-one], the EC50 is 10 to 30 nM.

As to `CC1CCCn2c(nc3cc(C#Cc4ccccn4)ccc3c2=O)C1` (stereo not drawn) [Example 6.36, 7-methyl-3-(pyridin-2-ylethynyl)-7,8,9,10-tetrahydroazepino[2,1-b]quinazolin-12(6H)-one], the 50% effective concentration (EC50) was in the range of 10 to 30 nM.

`CC1(C)CCCn2c(nc3cc(C#Cc4ccccn4)ccc3c2=O)C1` [Example 6.37, 7,7-dimethyl-3-(pyridin-2-ylethynyl)-7,8,9,10-tetrahydroazepino[2,1-b]quinazolin-12(6H)-one]: the EC50 is less than 10 nM.

Consider `O=c1c2ccc(C#Cc3ccccn3)cc2nc2n1CCC(C(F)(F)F)CC2` (stereo not drawn) [Example 6.38, 3-(pyridin-2-ylethynyl)-8-(trifluoromethyl)-7,8,9,10-tetrahydroazepino[2,1-b]quinazolin-12(6H)-one], for which the EC50 was in the range of 30 to 100 nM.
